For experiment [1], the target named is KRAS G12V (Homo sapiens, UniProt P01116, G12V). Briefly: GDP-GTP exchange assay (bodipy-GDP/GppNHp, SOS1), KRAS G12V. The experiment is classed as biochemical. The conditions noted are these: KRAS_G12V exchange assay IC50, value for the most potent isomer quoted; for pIC50: read-out: G12V_exchange. The procedure: (§1) The inhibitor potency of the exemplified compounds was determined in a fluorescence based guanine nucleotide exchange assay, which measures the exchange of bodipy-GDP (fluorescently labeled GDP) for GppNHp (Non-hydrolyzable GTP analog) to generate the active state of KRAS in the presence of SOS1 (guanine nucleotide exchange factor). Inhibitors were serially diluted in DMSO and a volume of 0.1 μL was transferred to the wells of a black low volume 384-well plate. 5 μL/well volume of bodipy-loaded KRAS G12D diluted to […] in assay buffer (25 mM Hepes pH 7.5, 50 mM NaCl, 10 mM mgCl2 and 0.01% Brij-35) was added to the plate and pre-incubated with inhibitor for 4 h at ambient temperature. Appropriate controls (enzyme with no inhibitor or with a G12D inhibitor) were included on the plate. The exchange was initiated by the addition of a 5 μL/well volume containing 1 mM GppNHp and 300 nM SOS1 in assay buffer. The 10 μL/well reaction concentration of the bodipy-loaded KRAS G12D, GppNHp, and SOS1 were 2.5 nM, 500 uM, and 150 nM, respectively. The reaction plates were incubated at ambient temperature for 2 h, a time estimated for complete GDP-GTP exchange in the absence of inhibitor. For the KRAS G12V mutant, similar guanine nucleotide exchange assays were used with 2.5 nM as final concentration for the bodipy loaded KRAS proteins and 3 h incubation after adding GppNHp-SOS1 mixture. A cyclic peptide described to selectively bind G12D mutant (Sakamoto et al., BBRC 484.3 (2017), 605-611) or internal compounds with confirmed binding were used as positive controls in the assay plates. Fluorescence intensities were measured on a PheraStar plate reader instrument (BMG Labtech) with excitation at 485 nm and emission at 520 nm.
KRAS G12V, sequence (P01116 1-188 isoform P01116-2 G12V): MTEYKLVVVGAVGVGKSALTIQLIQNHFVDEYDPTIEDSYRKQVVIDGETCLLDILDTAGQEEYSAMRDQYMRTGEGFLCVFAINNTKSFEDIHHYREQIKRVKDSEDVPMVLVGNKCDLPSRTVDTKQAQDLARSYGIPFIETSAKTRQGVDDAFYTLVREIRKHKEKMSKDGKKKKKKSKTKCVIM
(§2) Either GraphPad prism or Genedata Screener SmartFit was used to analyze the data. The IC50 values were derived by fitting the data to a four parameter logistic equation producing a sigmoidal dose-response curve with a variable Hill coefficient.
(§3) The symbol “t” indicates IC50≤100 nM, “††” indicates IC50>100 nM but ≤1 μM; and “†††” indicates IC50 is >1 μM but ≤5 μM, “††††” indicates IC50 is >5 μM but ≤10 μM. “NA” indicates IC50 not available.

Experiment [2] has as its target KRAS G12D (Homo sapiens, UniProt P01116, G12D). In words: GDP-GTP exchange assay (bodipy-GDP/GppNHp, SOS1), KRAS G12D. The experiment is classed as biochemical. The note with it: KRAS_G12D exchange assay IC50; 4 h pre-incubation; value for the most potent isomer quoted. The procedure: as §1, §2, §3

pIC50: −log10 of the molar value.

KRAS G12D, sequence (P01116 1-188 isoform P01116-2 G12D): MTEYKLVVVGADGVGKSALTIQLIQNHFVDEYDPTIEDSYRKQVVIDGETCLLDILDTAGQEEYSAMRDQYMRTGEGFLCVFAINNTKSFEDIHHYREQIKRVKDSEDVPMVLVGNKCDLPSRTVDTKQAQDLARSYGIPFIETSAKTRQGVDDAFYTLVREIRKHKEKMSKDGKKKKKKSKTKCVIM

Turning to `Cc1nc2c(F)c(-c3cccc(Cl)c3Cl)c(CCC#N)cc2c2c1cc([C@@H](C)N1CCCN(c3ccnc(N(C)C)c3)C1=O)n2[C@H]1[C@H]2CN[C@@H]1C2` [Example 30, 3-(1-((1R,4R,5S)-2-azabicyclo[2.1.1]hexan-5-yl)-7-(2,3-dichlorophenyl)-2-((R)-1-(3-(2-(dimethylamino)pyridin-4-yl)-2-oxotetrahydropyrimidin-1(2H)-yl)ethyl)-6-fluoro-4-methyl-1H-pyrrolo[3,2-c]quinolin-8-yl)propanenitrile], the pIC50 in experiment [1] was 6.00 to 7.00. Also, the G12D_exchange entry in experiment [2] is recorded as “†”.
Consider `CC(O)c1nc2c(F)c(-c3cccc(Cl)c3Cl)c(CCC#N)cc2c2c1cc([C@@H](C)N1CCCN(c3ccncc3)C1=O)n2[C@H]1[C@H]2CN[C@@H]1C2` (stereo partly drawn) [Example 39, 3-(1-((1R,4R,5S)-2-azabicyclo[2.1.1]hexan-5-yl)-7-(2,3-dichlorophenyl)-6-fluoro-4-(1-hydroxyethyl)-2-((R)-1-(2-oxo-3-(pyridin-4-yl)tetrahydropyrimidin-1(2H)-yl)ethyl)-1H-pyrrolo[3,2-c]quinolin-8-yl)propanenitrile], for which the G12V_exchange entry in experiment [1] is on record as “†”. Further, in experiment [2], the G12D_exchange entry is recorded as “†”.
For `Cc1nc2c(F)c(-c3cccc(Cl)c3Cl)c(CCC#N)cc2c2c1cc([C@@H](C)N1CCCN(c3ccncc3)C1=O)n2[C@H]1[C@H]2CN[C@@H]1C2` [Example 17, 3-(1-((1R,4R,5S)-2-azabicyclo[2.1.1]hexan-5-yl)-7-(2,3-dichlorophenyl)-6-fluoro-4-methyl-2-((R)-1-(2-oxo-3-(pyridin-4-yl)tetrahydropyrimidin-1(2H)-yl)ethyl)-1H-pyrrolo[3,2-c]quinolin-8-yl)propanenitrile], in experiment [1], the pIC50 was 6.00 to 7.00. Further, in experiment [2], the G12D_exchange result is listed as “†”.
The corresponding values for `Cc1nc2c(F)c(-c3cccc(Cl)c3Cl)c(CCC#N)cc2c2c1cc([C@@H](C)N1CCCN(c3cc[nH]c(=O)c3)C1=O)n2[C@H]1[C@H]2CN[C@@H]1C2` [Example 37, 3-(1-((1R,4R,5S)-2-azabicyclo[2.1.1]hexan-5-yl)-7-(2,3-dichlorophenyl)-6-fluoro-4-methyl-2-((R)-1-(2-oxo-3-(2-oxo-1,2-dihydropyridin-4-yl)tetrahydropyrimidin-1(2H)-yl)ethyl)-1H-pyrrolo[3,2-c]quinolin-8-yl)propanenitrile] are 6.00 to 7.00 and “†”.
For the compound `Cc1nc2c(F)c(-c3cccc(Cl)c3Cl)c(CCC#N)cc2c2c1cc([C@@H](C)N1CCCN(c3ccncn3)C1=O)n2[C@H]1[C@H]2CN[C@@H]1C2` (single isomer, unassigned) [Example 11], the pIC50 in experiment [1] was 6.00 to 7.00. Moreover, the G12D_exchange result in experiment [2] is “†”.
`Cc1nc2c(F)c(-c3cccc(Cl)c3Cl)c(CCC#N)cc2c2c1cc([C@@H](C)N1CCCN(c3cccc(F)n3)C1=O)n2[C@H]1[C@H]2CN[C@@H]1C2` [Example 41, 3-(1-((1R,4R,5S)-2-azabicyclo[2.1.1]hexan-5-yl)-7-(2,3-dichlorophenyl)-6-fluoro-2-((R)-1-(3-(6-fluoropyridin-2-yl)-2-oxotetrahydropyrimidin-1(2H)-yl)ethyl)-4-methyl-1H-pyrrolo[3,2-c]quinolin-8-yl)propanenitrile]: in experiment [1], the pIC50 is 6.00 to 7.00. In experiment [2], the G12D_exchange result was “†”.
As for `Cc1nc2c(F)c(-c3cccc(Cl)c3Cl)c(CCC#N)cc2c2c1cc([C@@H](C)N1CCCN(c3ccnnc3)C1=O)n2[C@H]1[C@H]2CN[C@@H]1C2` [Example 35, 3-(1-((1R,4R,5S)-2-azabicyclo[2.1.1]hexan-5-yl)-7-(2,3-dichlorophenyl)-6-fluoro-4-methyl-2-((R)-1-(2-oxo-3-(pyridazin-4-yl)tetrahydropyrimidin-1(2H)-yl)ethyl)-1H-pyrrolo[3,2-c]quinolin-8-yl)propanenitrile], in experiment [2], the G12D_exchange entry was “†”.
With `COc1ncccc1N1CCCN([C@H](C)c2cc3c(C)nc4c(F)c(-c5cccc(Cl)c5Cl)c(CCC#N)cc4c3n2[C@H]2[C@H]3CN[C@@H]2C3)C1=O` [Example 20, 3-(1-((1R,4R,5S)-2-azabicyclo[2.1.1]hexan-5-yl)-7-(2,3-dichlorophenyl)-6-fluoro-2-((R)-1-(3-(2-methoxypyridin-3-yl)-2-oxotetrahydropyrimidin-1(2H)-yl)ethyl)-4-methyl-1H-pyrrolo[3,2-c]quinolin-8-yl)propanenitrile], in experiment [1], the pIC50 is 6.00 to 7.00. The G12D_exchange entry in experiment [2] is reported as “†”.
With `Cc1nc2c(F)c(-c3cccc(Cl)c3Cl)c(CCC#N)cc2c2c1cc([C@@H](C)N1CCCN(c3ccncn3)C1=O)n2[C@H]1[C@H]2CN[C@@H]1C2` [Example 33, 3-(1-((1R,4R,5S)-2-azabicyclo[2.1.1]hexan-5-yl)-7-(2,3-dichlorophenyl)-6-fluoro-4-methyl-2-((R)-1-(2-oxo-3-(pyrimidin-4-yl)tetrahydropyrimidin-1(2H)-yl)ethyl)-1H-pyrrolo[3,2-c]quinolin-8-yl)propanenitrile], the pIC50 in experiment [1] was 6.00 to 7.00. Besides, in experiment [2], the G12D_exchange result is “†”.
With `Cc1nc2c(F)c(-c3cccc(Cl)c3Cl)c(CCC#N)cc2c2c1cc([C@@H](C)N1CCCN(c3ccc(C#N)cc3)C1=O)n2[C@H]1[C@H]2CN[C@@H]1C2` [Example 25, 4-(3-((1R)-1-(1-((1R,4R,5S)-2-azabicyclo[2.1.1]hexan-5-yl)-8-(2-cyanoethyl)-7-(2,3-dichlorophenyl)-6-fluoro-4-methyl-1H-pyrrolo[3,2-c]quinolin-2-yl)ethyl)-2-oxotetrahydropyrimidin-1(2H)-yl)benzonitrile], the pIC50 in experiment [1] was 6.00 to 7.00. In addition, in experiment [2], the G12D_exchange entry was “†”.
On to `Cc1nc2c(F)c(-c3cccc(Cl)c3Cl)c(CCC#N)cc2c2c1cc([C@@H](C)N1CCCN(c3ccccc3)C1=O)n2[C@H]1[C@H]2CN[C@@H]1C2` [Example 16, 3-(1-((1R,4R,5S)-2-azabicyclo[2.1.1]hexan-5-yl)-7-(2,3-dichlorophenyl)-6-fluoro-4-methyl-2-((R)-1-(2-oxo-3-phenyltetrahydropyrimidin-1(2H)-yl)ethyl)-1H-pyrrolo[3,2-c]quinolin-8-yl)propanenitrile], for which the G12V_exchange entry in experiment [1] was “†”. Further, the G12D_exchange entry in experiment [2] is listed as “†”.
In the case of `Cc1nc2c(F)c(-c3cccc(Cl)c3Cl)c(CCC#N)cc2c2c1cc([C@@H](C)N1CCCN(c3ccnc(C(F)F)c3)C1=O)n2[C@H]1[C@H]2CN[C@@H]1C2` (single isomer, unassigned) [Example 12], the pIC50 in experiment [1] is 6.00 to 7.00. Besides, the G12D_exchange result in experiment [2] is on record as “†”.
Take `Cc1nc2c(F)c(-c3cccc(Cl)c3Cl)c(CCC#N)cc2c2c1cc([C@@H](C)N1CCCN(c3cccnc3)C1=O)n2[C@H]1[C@H]2CN[C@@H]1C2` [Example 23, 3-(1-((1R,4R,5S)-2-azabicyclo[2.1.1]hexan-5-yl)-7-(2,3-dichlorophenyl)-6-fluoro-4-methyl-2-((R)-1-(2-oxo-3-(pyridin-3-yl)tetrahydropyrimidin-1(2H)-yl)ethyl)-1H-pyrrolo[3,2-c]quinolin-8-yl)propanenitrile]: in experiment [1], the G12V_exchange entry is given as “†”. Moreover, the G12D_exchange result in experiment [2] is listed as “†”.

Source of the values: patent US20240358702A1, “CYCLIC UREA KRAS INHIBITORS” (INCYTE CORPORATION, priority 2023, published 2024).
